For assay [1], the target named is T1, human Cereblon WT GST-tagged protein (Homo sapiens, UniProt Q96SW2).
T1 construct: purchased CISBIO 64BDCRBNPEH
Put plainly: CRBN-binding affinity, HTRF (CEREBLON BINDING kit). Conditions: displacement of Thalidomide-Re reagent, 3 hours at room temperature. Put shortly:
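HTRF competition format: compound, GST-tagged wild-type human Cereblon, Thalidomide-Re tracer and GST Eu antibody were combined in PROTAC binding buffer. Binding was derived from emission at 620 nm relative to blank and solvent control wells.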
Background: Time-resolved FRET reads energy transfer from a long-lived donor to a nearby acceptor.

Assay [2] addresses T2, IKZF2 (Homo sapiens, UniProt Q96SW2+Q9UKS7).
T2 construct: endogenous in cells; host or cells: human PBMCs (Milecell Biotechnologies)
Put plainly: Western-blot assay, substrate protein in hPBMCs. It counts as cell-based. Conditions: hPBMC cells, 24 hours, tested at 50 nM and 500 nM, table does not say which. Put shortly: (§1)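 Steps: treat hPBMCs 24 h; lyse on ice in RIPA with phosphatase inhibitors; quantify protein by BCA; denature at 95 °C and blot. Remaining protein (%) is the target/internal-control band ratio, normalised; degradation rate is its complement.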

In assay [3] the target is T3, Wee1 (Homo sapiens, UniProt P30291+Q96SW2).
T3 construct: endogenous in cells; host or cells: human PBMCs (Milecell Biotechnologies)
Put plainly: Western-blot assay, substrate protein in hPBMCs. Conditions: hPBMC cells, 24 hours, tested at 50 nM and 500 nM, table does not say which. It counts as cell-based. The essentials:
as §1

Assay [4] has as its target T4, CK1α (Homo sapiens, UniProt P48729+Q96SW2).
T4 construct: endogenous in cells; host or cells: human PBMCs (Milecell Biotechnologies)
Put plainly: Western-blot assay, substrate protein in hPBMCs. In kind it is cell-based. Conditions: hPBMC cells, 24 hours, tested at 50 nM and 500 nM, table does not say which. The essentials: as §1

Assay [5] has as its target T5, GSPT1 (Homo sapiens, UniProt P15170+Q96SW2).
T5 construct: endogenous in cells; host or cells: human PBMCs (Milecell Biotechnologies)
Put plainly: Western-blot assay, substrate protein in hPBMCs. In kind it is cell-based. The conditions noted are these: hPBMC cells, 24 hours, tested at 50 nM and 500 nM, table does not say which. The essentials: as §1

The target of assay [6] is T6, IKZF3 (Homo sapiens, UniProt Q96SW2+Q9UKT9).
T6 construct: endogenous in cells; host or cells: human PBMCs (Milecell Biotechnologies)
Put plainly: Western-blot assay, substrate protein in hPBMCs. In kind it is cell-based. The conditions noted are these: hPBMC cells, 24 hours, tested at 50 nM and 500 nM, table does not say which. The essentials:
(§2)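 hPBMCs (1×10^6 cells/mL) exposed 24 h to compound at 50 nM and 500 nM, lysed, and probed by Western blot. Band grayscale normalized to internal control gives % protein remaining versus DMSO; DC50 from concentration-response fit at half DMSO band intensity.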

The target in assay [7] is T7, IKZF1 (Homo sapiens, UniProt Q13422+Q96SW2).
T7 construct: endogenous in cells; host or cells: human PBMCs (Milecell Biotechnologies)
Put plainly: Western-blot assay, substrate protein in hPBMCs. It counts as cell-based. The conditions noted are these: hPBMC cells, 24 hours, tested at 50 nM and 500 nM, table does not say which. Put shortly: as §2

Assay [8] deals with MV-4-11. Put plainly: Half inhibitory concentration (IC50) against tumor cells, Cell Counting Kit-8. It counts as cell-based. The conditions noted are these: Homo sapiens, MV4-11, CCK-8, 96 h treatment, read-out: inhibitory activity (IC50, nM) against tumor cells proliferation. The protocol:
The tumor cells used herein were cultured in a cell culture medium listed in table A at 37° C. in an incubator with 5% CO2.
After the cells were treated with the compounds of the present disclosure for a period of time, the cell viability detection reagent was added to the culture medium for cell viability assessment according to the instructions provided with the CCK-8 kit. […] The growth inhibition of the compounds of the present disclosure on cells was plotted by Prism Graphpad software, and the IC50 values of the compounds of the present disclosure were calculated therefrom.
In general terms: Tetrazolium dyes change colour on reduction, which living cells bring about.

A value given as a limit tells only on which side of the number the result lay.

T5 sequence (P15170 whole entry): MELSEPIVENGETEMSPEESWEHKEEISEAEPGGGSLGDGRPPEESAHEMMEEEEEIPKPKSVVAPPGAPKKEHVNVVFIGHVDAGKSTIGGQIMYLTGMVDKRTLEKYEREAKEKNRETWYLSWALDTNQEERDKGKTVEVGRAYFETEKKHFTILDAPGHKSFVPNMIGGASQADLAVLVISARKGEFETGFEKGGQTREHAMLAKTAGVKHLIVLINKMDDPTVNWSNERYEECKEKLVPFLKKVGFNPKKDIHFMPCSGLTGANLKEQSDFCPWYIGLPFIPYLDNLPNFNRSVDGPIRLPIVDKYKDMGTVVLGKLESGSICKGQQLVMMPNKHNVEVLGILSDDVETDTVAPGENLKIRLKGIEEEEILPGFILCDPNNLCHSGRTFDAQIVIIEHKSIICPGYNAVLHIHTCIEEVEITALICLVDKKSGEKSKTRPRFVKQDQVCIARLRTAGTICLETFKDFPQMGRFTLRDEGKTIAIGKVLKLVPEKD
T5 sequence (Q96SW2 whole entry): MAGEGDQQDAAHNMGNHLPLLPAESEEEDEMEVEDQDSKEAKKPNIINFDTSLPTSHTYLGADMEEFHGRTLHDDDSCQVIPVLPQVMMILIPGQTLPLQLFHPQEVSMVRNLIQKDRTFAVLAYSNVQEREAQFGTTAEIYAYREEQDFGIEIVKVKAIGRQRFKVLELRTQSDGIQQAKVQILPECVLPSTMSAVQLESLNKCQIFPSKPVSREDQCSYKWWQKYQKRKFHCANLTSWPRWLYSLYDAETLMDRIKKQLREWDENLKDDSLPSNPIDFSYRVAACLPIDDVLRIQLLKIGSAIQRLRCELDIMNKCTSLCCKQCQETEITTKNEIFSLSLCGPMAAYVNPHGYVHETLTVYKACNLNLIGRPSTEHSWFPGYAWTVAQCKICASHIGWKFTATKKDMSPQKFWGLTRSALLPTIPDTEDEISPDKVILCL
T5 sequence (Q16531 whole entry partner): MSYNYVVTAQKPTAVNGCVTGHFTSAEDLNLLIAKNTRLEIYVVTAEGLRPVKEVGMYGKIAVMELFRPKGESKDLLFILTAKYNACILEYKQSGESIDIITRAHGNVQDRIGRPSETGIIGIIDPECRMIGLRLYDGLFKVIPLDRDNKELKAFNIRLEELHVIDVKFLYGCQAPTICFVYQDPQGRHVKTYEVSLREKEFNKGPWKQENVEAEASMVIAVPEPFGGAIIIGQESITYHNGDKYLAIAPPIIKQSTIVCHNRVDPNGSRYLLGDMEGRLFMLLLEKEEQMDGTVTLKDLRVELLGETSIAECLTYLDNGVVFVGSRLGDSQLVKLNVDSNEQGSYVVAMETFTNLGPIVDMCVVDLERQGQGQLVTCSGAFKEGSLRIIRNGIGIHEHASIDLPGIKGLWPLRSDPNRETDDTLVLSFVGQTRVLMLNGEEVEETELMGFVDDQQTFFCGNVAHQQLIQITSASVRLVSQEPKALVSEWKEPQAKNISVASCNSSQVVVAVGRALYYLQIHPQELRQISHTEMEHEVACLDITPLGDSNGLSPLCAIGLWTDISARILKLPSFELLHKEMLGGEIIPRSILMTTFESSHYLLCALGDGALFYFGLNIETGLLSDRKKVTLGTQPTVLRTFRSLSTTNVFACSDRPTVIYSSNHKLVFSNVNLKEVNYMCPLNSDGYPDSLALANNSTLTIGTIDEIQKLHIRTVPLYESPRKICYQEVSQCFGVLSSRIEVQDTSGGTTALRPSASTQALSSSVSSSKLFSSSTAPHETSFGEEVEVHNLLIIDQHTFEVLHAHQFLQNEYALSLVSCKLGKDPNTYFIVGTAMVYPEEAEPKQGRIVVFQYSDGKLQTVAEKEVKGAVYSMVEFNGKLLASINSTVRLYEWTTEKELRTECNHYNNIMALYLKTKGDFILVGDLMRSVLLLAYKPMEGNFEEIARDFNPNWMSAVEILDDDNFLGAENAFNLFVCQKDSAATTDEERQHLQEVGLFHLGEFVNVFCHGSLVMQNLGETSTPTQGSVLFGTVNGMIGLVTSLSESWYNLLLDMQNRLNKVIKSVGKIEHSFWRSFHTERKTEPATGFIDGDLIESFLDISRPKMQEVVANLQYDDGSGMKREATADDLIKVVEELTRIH
T2 sequence (Q9UKS7 whole entry): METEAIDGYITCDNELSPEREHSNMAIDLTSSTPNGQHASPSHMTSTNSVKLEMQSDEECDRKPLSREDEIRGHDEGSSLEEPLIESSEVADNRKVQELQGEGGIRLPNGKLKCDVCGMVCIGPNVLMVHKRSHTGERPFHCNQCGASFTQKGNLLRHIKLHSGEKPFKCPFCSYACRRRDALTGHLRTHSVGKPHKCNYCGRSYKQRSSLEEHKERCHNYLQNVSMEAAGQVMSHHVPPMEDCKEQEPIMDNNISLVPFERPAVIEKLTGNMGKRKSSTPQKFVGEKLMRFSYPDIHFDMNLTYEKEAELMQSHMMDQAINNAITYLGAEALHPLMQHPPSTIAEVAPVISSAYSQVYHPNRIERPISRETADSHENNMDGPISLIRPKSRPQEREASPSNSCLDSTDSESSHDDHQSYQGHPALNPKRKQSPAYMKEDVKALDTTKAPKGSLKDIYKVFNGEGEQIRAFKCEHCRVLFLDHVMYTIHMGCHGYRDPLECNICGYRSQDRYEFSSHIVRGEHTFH
T2 sequence (Q96SW2 whole entry): as the sequence (Q96SW2 whole entry) above
T2 sequence (Q16531 whole entry partner): as the sequence (Q16531 whole entry partner) above
T3 sequence (P30291 whole entry): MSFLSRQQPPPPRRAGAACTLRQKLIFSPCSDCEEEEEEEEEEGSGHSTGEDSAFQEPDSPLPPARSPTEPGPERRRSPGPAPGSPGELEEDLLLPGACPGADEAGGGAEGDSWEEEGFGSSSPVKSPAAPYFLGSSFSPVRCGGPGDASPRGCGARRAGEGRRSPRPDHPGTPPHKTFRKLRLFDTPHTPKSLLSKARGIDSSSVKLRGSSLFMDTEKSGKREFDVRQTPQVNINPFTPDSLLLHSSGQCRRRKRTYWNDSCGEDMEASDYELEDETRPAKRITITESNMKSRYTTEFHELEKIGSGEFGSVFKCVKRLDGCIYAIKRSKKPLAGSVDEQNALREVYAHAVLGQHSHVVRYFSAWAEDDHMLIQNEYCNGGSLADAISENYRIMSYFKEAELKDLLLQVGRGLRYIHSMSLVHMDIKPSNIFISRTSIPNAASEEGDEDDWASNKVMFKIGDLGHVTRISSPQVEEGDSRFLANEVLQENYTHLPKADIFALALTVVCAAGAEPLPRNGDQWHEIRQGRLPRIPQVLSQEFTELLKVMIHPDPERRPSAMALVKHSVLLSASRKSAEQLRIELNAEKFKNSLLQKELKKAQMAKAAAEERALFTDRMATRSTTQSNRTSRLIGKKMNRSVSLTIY
T3 sequence (Q96SW2 whole entry): as the sequence (Q96SW2 whole entry) above
T3 sequence (Q16531 whole entry partner): as the sequence (Q16531 whole entry partner) above
T6 sequence (Q9UKT9 whole entry): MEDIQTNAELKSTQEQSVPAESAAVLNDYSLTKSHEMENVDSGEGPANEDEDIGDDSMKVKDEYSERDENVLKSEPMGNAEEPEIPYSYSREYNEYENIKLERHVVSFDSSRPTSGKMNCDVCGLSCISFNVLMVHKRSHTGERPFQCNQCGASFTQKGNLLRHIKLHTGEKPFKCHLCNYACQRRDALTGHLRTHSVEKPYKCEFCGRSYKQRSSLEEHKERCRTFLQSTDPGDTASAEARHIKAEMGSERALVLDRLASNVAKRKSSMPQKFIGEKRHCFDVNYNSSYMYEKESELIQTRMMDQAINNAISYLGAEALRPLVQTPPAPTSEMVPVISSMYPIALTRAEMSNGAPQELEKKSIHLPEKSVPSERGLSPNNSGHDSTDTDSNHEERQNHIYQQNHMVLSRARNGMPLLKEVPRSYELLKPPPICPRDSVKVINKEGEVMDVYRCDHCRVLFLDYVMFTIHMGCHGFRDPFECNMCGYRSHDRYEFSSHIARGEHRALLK
T6 sequence (Q96SW2 whole entry): as the sequence (Q96SW2 whole entry) above
T6 sequence (Q16531 whole entry partner): as the sequence (Q16531 whole entry partner) above
T7 sequence (Q13422 whole entry): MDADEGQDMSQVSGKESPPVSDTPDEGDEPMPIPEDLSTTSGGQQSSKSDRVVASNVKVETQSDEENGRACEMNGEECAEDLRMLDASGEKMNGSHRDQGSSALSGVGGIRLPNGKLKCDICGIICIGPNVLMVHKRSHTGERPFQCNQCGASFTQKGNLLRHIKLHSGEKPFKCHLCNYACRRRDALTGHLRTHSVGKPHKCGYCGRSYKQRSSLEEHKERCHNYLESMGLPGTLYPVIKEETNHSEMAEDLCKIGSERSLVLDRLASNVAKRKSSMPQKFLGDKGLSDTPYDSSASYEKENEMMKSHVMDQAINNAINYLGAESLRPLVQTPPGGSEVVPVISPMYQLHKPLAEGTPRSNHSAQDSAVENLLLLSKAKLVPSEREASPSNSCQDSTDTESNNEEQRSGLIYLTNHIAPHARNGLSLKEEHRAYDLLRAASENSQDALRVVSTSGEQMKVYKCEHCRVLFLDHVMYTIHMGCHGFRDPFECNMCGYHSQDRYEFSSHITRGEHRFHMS
T7 sequence (Q96SW2 whole entry): as the sequence (Q96SW2 whole entry) above
T7 sequence (Q16531 whole entry partner): as the sequence (Q16531 whole entry partner) above
T1 sequence (Q96SW2 whole entry): as the sequence (Q96SW2 whole entry) above

With `CC1(C)CCC(CN2CC(Oc3ccc4c(c3)CN(C3CCC(=O)NC3=O)C4=O)C2)=C(c2ccc(F)cc2)C1` (centres unmarked) [GT-03459, 3-(5-((1-((4′-fluoro-5,5-dimethyl-3,4,5,6-tetrahydro-[1,1′-biphenyl]-2-yl)methyl)azetidin-3-yl)oxy)-1-oxoisoindolin-2-yl)piperidine-2,6-dione], the IC50 in assay [1] was 500 to 1000 nM. For the same molecule, the “substrate protein remaining %” value in assay [2], in assay [3], in assay [4], in assay [5], in assay [6] and in assay [7] was “A (0%≤ substrate protein remaining % ≤80%)” throughout.
`O=C1CCC(N2Cc3cc(OC4CCNCC4)ccc3C2=O)C(=O)N1` (centres unmarked) [GT-03612, 3-(1-oxo-5-(piperidin-4-yloxy)isoindolin-2-yl)piperidine-2,6-dione]: the IC50 in assay [1] is 1000 to 1900 nM. In addition, the “substrate protein remaining %” value in assay [2], in assay [3], in assay [4], in assay [5], in assay [6] and in assay [7] was “A (0%≤ substrate protein remaining % ≤80%)” each time.
Take `O=C1CCC(N2Cc3cc(OC4CN(CC5=C(c6ccc(F)cc6)CCCC5)C4)ccc3C2=O)C(=O)N1` (centres unmarked) [GT-06302, 3-(5-((1-((4′-fluoro-3,4,5,6-tetrahydro-[1,1′-biphenyl]-2-yl)methyl)azetidin-3-yl)oxy)-1-oxoisoindolin-2-yl)piperidine-2,6-dione]: the IC50 in assay [1] was in the range of 500 to 1000 nM. In addition, the “substrate protein remaining %” value in assay [2], in assay [3], in assay [4], in assay [5], in assay [6] and in assay [7] was “A (0%≤ substrate protein remaining % ≤80%)” each time.
`O=C1CCC(N2Cc3cc(SC4CN(Cc5cnc(-c6ccccc6)cn5)C4)ccc3C2=O)C(=O)N1` (centres unmarked) [GT-06350, 3-(1-oxo-5-((1-((5-phenylpyrazin-2-yl)methyl)azetidin-3-yl)thio)isoindolin-2-yl)piperidine-2,6-dione] came in with an IC50 in assay [1] of less than 500 nM. In addition, the “substrate protein remaining %” value in assay [2], in assay [4], in assay [5], in assay [6] and in assay [7] was “A (0%≤ substrate protein remaining % ≤80%)” in each case.
As for `O=C1CCC(N2Cc3cc(SC4CN(CC5=C(c6ccc(Cl)cc6)CCOC5)C4)ccc3C2=O)C(=O)N1` (centres unmarked) [GT-06351, 3-(5-((1-((4-(4-chlorophenyl)-5,6-dihydro-2H-pyran-3-yl)methyl)azetidin-3-yl)thio)-1-oxoisoindolin-2-yl)piperidine-2,6-dione], the IC50 in assay [1] is less than 500 nM. Besides, the “substrate protein remaining %” value in assay [2], in assay [4], in assay [5], in assay [6] and in assay [7] was “A (0%≤ substrate protein remaining % ≤80%)” each time.
As to `O=C1CCC(N2Cc3cc(SC4CCCN(C(c5ccccc5)c5ccccc5)CC4)ccc3C2=O)C(=O)N1` (centres unmarked) [GT-06645, 3-(5-((1-benzhydrylazepan-4-yl)thio)-1-oxoisoindolin-2-yl)piperidine-2,6-dione], the figures for the IC50 in assay [8] and in assay [1] were 500 to 1000 nM and less than 500 nM, respectively. Moreover, in assay [5], the “substrate protein remaining %” value is listed as “A (0%≤ substrate protein remaining % ≤80%)”.
For the molecule `O=C1CCC(N2Cc3cc(OC4CN(Cc5ccc(-c6ccncc6)nc5)C4)ccc3C2=O)C(=O)N1` (centres unmarked) [GT-06809, 3-(5-((1-([2,4′-bipyridin]-5-ylmethyl)azetidin-3-yl)oxy)-1-oxoisoindolin-2-yl)piperidine-2,6-dione], the IC50 in assay [1] is 500 to 1000 nM. Also, the “substrate protein remaining %” value in assay [2], in assay [3], in assay [4], in assay [5], in assay [6] and in assay [7] was “A (0%≤ substrate protein remaining % ≤80%)” throughout.
As for `O=C1CCC(N2Cc3cc(OC4CCCN(C(c5ccccc5)c5ccccc5)CC4)ccc3C2=O)C(=O)N1` (centres unmarked) [GT-06928, 3-(5-((1-benzhydrylazepan-4-yl)oxy)-1-oxoisoindolin-2-yl)piperidine-2,6-dione], the figures for the IC50 in assay [8] and in assay [1] were 10 to 50 nM and 500 to 1000 nM, respectively. The “substrate protein remaining %” value in assay [2] and in assay [3] was “A (0%≤ substrate protein remaining % ≤80%)” each time.
For the molecule `O=C1CCC(N2Cc3cc(OC4CCCN(Cc5ccccc5-c5ccc(Cl)cc5)CC4)ccc3C2=O)C(=O)N1` (centres unmarked) [GT-06934, 3-(5-((1-((4′-chloro-[1,1′-biphenyl]-2-yl)methyl)azepan-4-yl)oxy)-1-oxoisoindolin-2-yl)piperidine-2,6-dione], the IC50 in assay [8] is 100 to 500 nM; in assay [1], less than 500 nM. For the same molecule, the “substrate protein remaining %” value in assay [2], in assay [3] and in assay [4] was “A (0%≤ substrate protein remaining % ≤80%)” each time.
Consider `O=C1CCC(N2Cc3cc(OC4CCCN(C(=O)c5ccccc5-c5ccc(Cl)cc5)CC4)ccc3C2=O)C(=O)N1` (centres unmarked) [GT-06935, 3-(5-((1-(4′-chloro-[1,1′-biphenyl]-2-carbonyl)azepan-4-yl)oxy)-1-oxoisoindolin-2-yl)piperidine-2,6-dione], for which the IC50 in assay [8] was 100 to 500 nM; in assay [1], less than 500 nM. Besides, the “substrate protein remaining %” value in assay [3], in assay [4] and in assay [5] was “A (0%≤ substrate protein remaining % ≤80%)” each time.
As to `O=C1CCC(N2Cc3cc(OC4CC5CN(C(c6ccccc6)c6ccccc6)CC5C4)ccc3C2=O)C(=O)N1` (centres unmarked) [GT-06955, 3-(5-((2-benzhydryloctahydro-cyclopenta[c]pyrrol-5-yl)oxy)-1-oxoisoindolin-2-yl)piperidine-2,6-dione], the IC50 in assay [8] is 50 to 100 nM; in assay [1], less than 500 nM. Further, the “substrate protein remaining %” value in assay [2], in assay [4] and in assay [7] was “A (0%≤ substrate protein remaining % ≤80%)” throughout.
Consider `CC1(C)CCC(CN2CCC(Sc3ccc4c(c3)CN(C3CCC(=O)NC3=O)C4=O)C(F)(F)C2)=C(c2ccc(Cl)cc2)C1` (centres unmarked) [GT-06960, 3-(5-((1-((4′-chloro-5,5-dimethyl-3,4,5,6-tetrahydro-[1,1′-biphenyl]-2-yl)methyl)-3,3-difluoropiperidin-4-yl)thio)-1-oxoisoindolin-2-yl)piperidine-2,6-dione], for which the IC50 in assay [8] fell in the range of 500 to 1000 nM. Besides, the “substrate protein remaining %” value in assay [3], in assay [4] and in assay [5] was “A (0%≤ substrate protein remaining % ≤80%)” each time.
On to `CC1(C)CCC(C(=O)N2CCC3(CCC(Sc4ccc5c(c4)CN(C4CCC(=O)NC4=O)C5=O)CC3)CC2)=C(c2ccc(Cl)cc2)C1` (centres unmarked) [GT-07016, 3-(5-((3-(4′-chloro-5,5-dimethyl-3,4,5,6-tetrahydro-[1,1′-biphenyl]-2-carbonyl)-3-azaspiro[5.5]undecan-9-yl)thio)-1-oxoisoindolin-2-yl)piperidine-2,6-dione], for which the IC50 in assay [8] was 500 to 1000 nM; in assay [1], 1000 to 1900 nM.
